Reference: patent publication US20100204182A1, “ECTONUCLEOTIDASE INHIBITORS” (RHEINISCHE FRIEDRICH-WILHELMS-UNIVERSITAT BONN, priority 2006, published 2010)
Read-outs that look alike come from different tables or passages of the source.

Experiments:
human NTPDase8 = target: T1, human NTPDase8 (Homo sapiens, UniProt Q5MY95); experiment: NTPDase inhibition assay by capillary electrophoresis (CE), NTPDase8; assay type: biochemical; details: for inhibition at 1000 µM: human NTPDase8, 1 mM compound, ATP 320 μM; for Ki: read-out: NTPDase8 Ki [μM] ± SEM
T1 sequence (Q5MY95 1-495): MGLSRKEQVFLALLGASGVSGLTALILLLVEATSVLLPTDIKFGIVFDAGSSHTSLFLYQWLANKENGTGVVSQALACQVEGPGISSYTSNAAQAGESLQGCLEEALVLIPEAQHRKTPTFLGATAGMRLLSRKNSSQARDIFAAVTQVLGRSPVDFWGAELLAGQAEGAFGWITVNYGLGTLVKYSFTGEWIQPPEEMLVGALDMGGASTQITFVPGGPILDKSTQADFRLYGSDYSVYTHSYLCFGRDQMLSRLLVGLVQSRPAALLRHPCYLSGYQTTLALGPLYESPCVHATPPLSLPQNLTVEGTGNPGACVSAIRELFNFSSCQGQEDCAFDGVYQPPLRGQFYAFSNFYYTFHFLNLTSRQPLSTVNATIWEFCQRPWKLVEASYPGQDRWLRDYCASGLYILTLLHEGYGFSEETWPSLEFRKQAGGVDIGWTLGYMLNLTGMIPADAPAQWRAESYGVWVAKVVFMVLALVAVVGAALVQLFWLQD
Protocol: (§1) The applied enzyme inhibition assay has been described (Iqbal J, Vollmayer P, Braun N, Zimmermann H, Müller C E. A capillary electrophoresis method for the characterization of ecto-nucleoside triphosphate diphosphohydrolases (NTPDases) and the analysis of inhibitors by in-capillary enzymatic microreaction. Purinergic Signalling 2005, 1, 349-358).
(§2) A. CE instrumentation: All experiments were carried out using a P/ACE MDQ capillary electrophoresis system (Beckman Instruments, Fullerton, Calif., USA) equipped with a UV detection system coupled with a diode-array detector (DAD). Data collection and peak area analysis were performed by the P/ACE MDQ software 32 KARAT obtained from Beckman Coulter. The capillary temperature was kept constant at 25° C. The temperature of the sample storing unit was also adjusted to 25° C. The electrophoretic separations were carried out using an eCAP polyacrylamide-coated fused-silica capillary [(30 cm (20 cm effective length)×50 μm internal diameter (I.D.)×360 μm outside diameter (O.D.), obtained from CS-Chromatographie (Langerwehe, Germany)]. The separation was performed using an applied current of −60 μA and a data acquisition rate of 8 Hz. Analytes were detected using direct UV absorbance at 210 nm. The capillary was conditioned by rinsing with water for 2 min and subsequently with buffer (phosphate 50 mM, pH 6.5) for 1 min. Sample injections were made at the cathodic side of the capillary.
(§3) B. NTPDase inhibition assay by capillary electrophoresis: Enzyme inhibition assays were carried out at 37° C. in a final volume of 100 μl. The reaction mixture contained 320 μM of ATP (substrate) in reaction buffer. The reaction buffer contained 140 mM NaCl, 5 mM KCl, 1 mM MgCl2, 2 mM CaCl2, and 10 mM Hepes, pH 7.4.
(§4) Different concentrations of inhibitors dissolved in DMSO or water (10 μl) were added and the reaction was initiated by the addition of 10 μl of the appropriately diluted recombinant or native human or rat NTPDase enzyme. […] The mixture (final volume 100 μl) was incubated for 15 min and terminated by heating at 99° C. for 4 min. Aliquots of the reaction mixture (50 μl) were then transferred to mini-CE vials and injected into the CE instrument under the conditions described above. 20 μM of UMP was used as internal standard. Inhibition of NTPDase was tested over a range of 6 to 8 concentrations of test compound spanning 3 orders of magnitude to determine K1 values. Each analysis was repeated two times (in triplicates) in two separate experiments. The Cheng-Prusoff equation was used to calculate the K1 values from the IC50 values, determined by the non-linear curve fitting program PRISM® 3.0 (GraphPad, San Diego, Calif., USA). In table 1K, values of selected compounds as inhibitors of human NTPDases are given.

hP2Y12 = hP2Y12 (Homo sapiens, UniProt Q9H244); experiment: Inhibition of [3H]PSB-0413 binding at hP2Y12; details: mean ± SEM, read-out: hP2Y12 % Inhibition of [^3H]PSB-0413 Binding at 10 μM, n = 3
hP2Y12, sequence (Q9H244 whole entry): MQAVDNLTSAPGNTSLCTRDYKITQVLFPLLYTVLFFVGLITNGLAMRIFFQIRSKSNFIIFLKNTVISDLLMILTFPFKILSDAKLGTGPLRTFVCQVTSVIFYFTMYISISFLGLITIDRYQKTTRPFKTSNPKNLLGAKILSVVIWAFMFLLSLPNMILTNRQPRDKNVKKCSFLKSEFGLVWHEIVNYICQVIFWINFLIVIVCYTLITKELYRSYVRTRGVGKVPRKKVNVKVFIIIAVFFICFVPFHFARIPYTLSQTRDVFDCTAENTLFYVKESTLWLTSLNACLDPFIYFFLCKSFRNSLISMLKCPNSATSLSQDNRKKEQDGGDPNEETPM
Protocol: In table 2 inhibition data of selected examples at human P2Y receptor subtypes were collected. It can be seen that no compound was identified that inhibited P2Y receptors at high concentrations of 100 μM and 10 μM, respectively.

human NTPDase1 = target: T2, human NTPDase1 (Homo sapiens, UniProt P49961); experiment: NTPDase inhibition assay by capillary electrophoresis (CE), NTPDase1; assay type: biochemical; details: ATP 320 μM; for inhibition at 1000 µM: 1 mM compound; for Ki: CE method, Km 17 μM, read-out: NTPDase1 Ki [μM] ± SEM
T2 sequence (P49961 1-510): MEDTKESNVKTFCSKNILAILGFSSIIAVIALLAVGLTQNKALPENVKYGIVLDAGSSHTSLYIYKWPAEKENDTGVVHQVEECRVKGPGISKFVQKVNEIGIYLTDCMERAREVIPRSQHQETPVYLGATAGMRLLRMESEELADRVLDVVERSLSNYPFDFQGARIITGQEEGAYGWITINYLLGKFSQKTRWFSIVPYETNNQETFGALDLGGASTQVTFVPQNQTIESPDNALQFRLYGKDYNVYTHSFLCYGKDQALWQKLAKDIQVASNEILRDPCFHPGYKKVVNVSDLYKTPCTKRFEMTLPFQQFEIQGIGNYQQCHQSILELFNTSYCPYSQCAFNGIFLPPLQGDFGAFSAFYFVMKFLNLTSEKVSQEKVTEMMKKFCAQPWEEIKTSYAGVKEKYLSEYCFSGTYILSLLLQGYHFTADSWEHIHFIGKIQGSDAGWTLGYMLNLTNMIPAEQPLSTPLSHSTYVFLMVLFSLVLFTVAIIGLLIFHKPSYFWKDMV
Protocol: as §1, §2, §3, §4

human NTPDase3 = target: T3, human NTPDase3 (Homo sapiens, UniProt O75355); experiment: NTPDase inhibition assay by capillary electrophoresis (CE), NTPDase3; assay type: biochemical; details: ATP 320 μM; for inhibition at 1000 µM: 1 mM compound; for Ki: CE method, Km 75 μM, read-out: NTPDase3 Ki [μM] ± SEM
T3 sequence (O75355 1-529): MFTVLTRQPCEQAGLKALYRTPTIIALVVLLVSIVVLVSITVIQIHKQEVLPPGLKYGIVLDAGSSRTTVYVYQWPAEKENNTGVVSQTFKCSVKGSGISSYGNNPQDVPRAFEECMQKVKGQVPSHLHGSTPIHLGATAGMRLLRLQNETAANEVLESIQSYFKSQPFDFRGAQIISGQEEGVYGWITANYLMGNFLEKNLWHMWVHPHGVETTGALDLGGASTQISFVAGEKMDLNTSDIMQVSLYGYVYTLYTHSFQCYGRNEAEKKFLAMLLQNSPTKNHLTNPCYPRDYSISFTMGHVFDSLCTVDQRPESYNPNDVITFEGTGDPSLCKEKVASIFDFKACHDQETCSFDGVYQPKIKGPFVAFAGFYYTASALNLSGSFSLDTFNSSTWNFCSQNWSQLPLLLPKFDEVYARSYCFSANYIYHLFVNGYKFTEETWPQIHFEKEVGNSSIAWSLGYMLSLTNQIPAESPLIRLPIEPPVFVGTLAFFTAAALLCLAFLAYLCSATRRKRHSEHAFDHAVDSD
Protocol: as §1, §2, §3, §4

human NTPDase2 = target: T4, human NTPDase2 (Homo sapiens, UniProt Q9Y5L3); experiment: NTPDase inhibition assay by capillary electrophoresis (CE), NTPDase2; assay type: biochemical; details: for inhibition at 1000 µM: read-out: NTPDase2 inhibition (%) at 1 mM
T4 sequence (Q9Y5L3 1-495): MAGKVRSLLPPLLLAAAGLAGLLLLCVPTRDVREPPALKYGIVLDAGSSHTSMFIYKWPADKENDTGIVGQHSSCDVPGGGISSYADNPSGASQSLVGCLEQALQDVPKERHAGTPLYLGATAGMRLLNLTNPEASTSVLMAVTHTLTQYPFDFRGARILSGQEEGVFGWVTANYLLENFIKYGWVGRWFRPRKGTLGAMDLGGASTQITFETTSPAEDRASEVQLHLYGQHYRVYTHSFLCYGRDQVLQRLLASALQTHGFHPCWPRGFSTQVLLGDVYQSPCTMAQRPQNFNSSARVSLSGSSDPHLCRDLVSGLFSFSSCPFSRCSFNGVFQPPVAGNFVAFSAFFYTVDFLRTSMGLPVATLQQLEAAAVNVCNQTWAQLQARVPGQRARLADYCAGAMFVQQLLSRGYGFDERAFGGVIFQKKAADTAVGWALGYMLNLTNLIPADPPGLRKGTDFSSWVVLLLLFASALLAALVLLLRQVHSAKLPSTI

rP2Y6 = rP2Y6 (Rattus norvegicus, UniProt Q63371); experiment: Inhibition of UDP binding at rP2Y6; details: read-out: rP2Y6 % inhibition of UDP binding at 100 μM, n = 3, mean ± SEM
rP2Y6, sequence (Q63371 whole entry): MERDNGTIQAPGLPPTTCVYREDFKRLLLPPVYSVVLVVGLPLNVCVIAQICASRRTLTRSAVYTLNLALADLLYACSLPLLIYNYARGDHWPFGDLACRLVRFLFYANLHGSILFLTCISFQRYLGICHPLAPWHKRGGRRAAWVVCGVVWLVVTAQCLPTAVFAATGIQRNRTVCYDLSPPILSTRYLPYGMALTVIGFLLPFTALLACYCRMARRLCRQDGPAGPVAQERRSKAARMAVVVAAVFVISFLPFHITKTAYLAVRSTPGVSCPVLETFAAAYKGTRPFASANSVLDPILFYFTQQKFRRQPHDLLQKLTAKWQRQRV

[1] = human NTPDase2, CE method, ATP 320 μM, Km 70 μM, read-out: NTPDase2 Ki [μM] ± SEM

Row | SMILES | inhibition at 1000 µM (human NTPDase8) | Ki (human NTPDase8) | inhibition at 10 µM (hP2Y12) | inhibition at 1000 µM (human NTPDase1) | Ki (human NTPDase1) | inhibition at 1000 µM (human NTPDase3) | Ki (human NTPDase3) | Ki (human NTPDase2) | inhibition at 1000 µM (human NTPDase2) | Ki (human NTPDase2; [1]) | inhibition at 100 µM (rP2Y6) | NTPDase2 inhibition (%) at 1 mM (human NTPDase2; human NTPDase2, 1 mM compound, ATP 320 μM)
1 | CCOP(=O)(Cc1ccc(NC(=O)CNC(=O)[C@H]2O[C@@H](n3cnc4c(N)ncnc43)C(O)C2O)cc1)OCC (stereo in doubt) [CC1, 4-[2-((2S,3R,4S,5R)-5-(6-Amino-9H-purin-9-yl)-3,4-dihydroxy-tetrahydro-furane-2-carboxamido)ethaneamido]benzylphosphonic acid diethylester] | 0% | > 100 µM | -4 ± 6% | 0% | > 50 µM | 0% | > 200 µM | > 200 µM | 0% | – | – | –
2 | CCOP(=O)(Cc1ccc(NC(=O)CCNC(=O)[C@H]2O[C@@H](n3cnc4c(N)ncnc43)C(O)C2O)cc1)OCC (stereo in doubt) [CC2, 4-[3-((2S,3R,4S,5R)-5-(6-Amino-9H-purin-9-yl)-3,4-dihydroxy-tetrahydro-furane-2-carboxamido)propaneamido]benzylphosphonic acid diethylester] | – | 255 ± 25.3 µM | 1 ± 6% | – | 154 ± 37 µM | 0% | > 200 µM | – | – | 1440 ± 64 µM | – | –
3 | CCOP(=O)(Cc1ccc(NC(=O)CCCNC(=O)[C@H]2O[C@@H](n3cnc4c(N)ncnc43)C(O)C2O)cc1)OCC (stereo in doubt) [CC3, 4-[4-((2S,3R,4S,5R)-5-(6-Amino-9H-purin-9-yl)-3,4-dihydroxy-tetrahydro-furane-2-carboxamido)butaneamido]benzylphosphonic acid diethylester] | 0% | > 100 µM | 5 ± 1% | – | 161 ± 24 µM | 0% | > 200 µM | – | – | 213 ± 34 µM | – | –
4 | CCOP(=O)(OCC)C(NC(=O)CCNC(=O)[C@H]1O[C@@H](n2cnc3c(N)ncnc32)C(O)C1O)P(=O)(OCC)OCC (stereo in doubt) [CC4, 3-[(2S,3R,4S,5R)-5-(6-Amino-9H-purin-9-yl)-3,4-dihydroxy-tetrahydrofurane-2-carboxamido]propaneamidomethylenediphosphonic acid tetraethylester] | – | – | – | 0% | > 50 µM | – | – | > 200 µM | 0% | – | 5 ± 8% | –
5 | CCOP(=O)(OCC)C(NC(=O)CCCNC(=O)[C@H]1O[C@@H](n2cnc3c(N)ncnc32)C(O)C1O)P(=O)(OCC)OCC (stereo in doubt) [CC5, 4-[(2S,3R,4S,5R)-5-(6-Amino-9H-purin-9-yl)-3,4-dihydroxy-tetrahydrofurane-2-carboxamido]butaneamidomethylenediphosphonic acid tetraethylester] | – | – | – | 0% | > 50 µM | – | – | > 200 µM | 0% | – | -5 ± 2% | –
6 | CCOP(=O)(Cc1ccc(NC(=O)[C@H]2O[C@@H](n3ccc(=O)[nH]c3=O)C(O)C2O)cc1)OCC (stereo in doubt) [Compound 1, 4-[(2S,3R,4S,5R)-5-(2,4-Dioxo-3,4-dihydropyrimidin-1(2H)-yl)-3,4-dihydroxy-tetrahydrofurane-2-carboxamido]benzylphosphonic acid diethylester] | – | – | – | – | – | – | – | 117 ± 15 µM | – | – | -12 ± 3% | –
7 | CCOP(=O)(CC(=O)OCCNC(=O)CNC(=O)[C@H]1O[C@@H](n2ccc(=O)[nH]c2=O)[C@@H](O)[C@H]1O)OCC [Compound 9, 2-[(2S,3R,4S,5R)-5-(2,4-Dioxo-3,4-dihydropyrimidin-1(2H)-yl)-3,4-dihydroxy-tetrahydro-furane-2-carboxamido]ethaneamido-ethyloxycarbonyl methylenephosphonic acid diethylester] | – | – | – | – | – | – | – | – | – | ~165 µM | – | 54%
